Consider one compound from publication PMC10439952, “JT002, a small molecule inhibitor of the NLRP3 inflammasome for the treatment of autoinflammatory disorders” (Scientific Reports, 2023).

This assay relates to Nlrp3 A350V/+ CreT knock-in mice. Put plainly: Nlrp3 A350V/+ CreT knock-in mouse model of Muckle Wells syndrome. The class given is in vivo. Conditions: 30 mg/kg orally once daily. The protocol: The effect of JT002 treatment on systemic and hepatic inflammation and hepatic fibrosis was evaluated in vivo using a murine Nlrp3 knock-in (KI) model of human Muckle Wells syndrome. In humans, mutation of alanine 352 to valine (A352V) in NLRP3 results in the constitutively active NLRP3 inflammasome which leads to excessive cytokine production and a clinical presentation characteristic of MWS[11]. The Nlrp3^A350V/+ CreT KI murine model (Nlrp3 KI model) contains a conditional A350V autosomal-dominant mutation that is analogous to the human A352V mutation[13],[23],[25]. In this model, mutant Nlrp3 expression occurs only in mice expressing Cre recombinase, which is inducible through the administration of tamoxifen, thus allowing for temporal control of the gain-of-function mutant Nlrp3. In vehicle-control mice, tamoxifen-induced activation of mutant Nlrp3 produces an inflammatory and fibrotic phenotype consisting of weight loss, increased liver weight, elevated liver alanine aminotransferase (ALT), systemic and hepatic neutrophilia, increased hepatic collagen deposition, and increased numbers of activated hepatic stellate cells (HSCs)[13],[23],[25]. In the Nlrp3^A350V/+ CreT study, vehicle or 30 mg/kg JT002 (n = 4/group) was dosed orally once daily starting one day prior to the first administration of tamoxifen. One animal from each group was found dead on day 4 and day 11 from the JT002 dosed group and the vehicle group, respectively, leaving only 3 animals per group. […] Serum levels of ALT in vehicle-treated mice averaged 186 U/L while ALT levels were reduced to 93 U/L in mice administered JT002 (Fig. 4C).
Total RNA was isolated from liver tissue (~ 50 mg) via syringe homogenization in TRIzol™ and cDNA synthesized using the iScript™ cDNA Synthesis kit (Biorad, Hercules, CA, USA). Real-time PCR was performed using TaqMan Fast Advanced Master Mix (ThermoFisher) and samples were amplified using QuantStudio-7 (ThermoFisher) in accordance with manufacturers’ instructions. The following TaqMan Gene Expression Assays (cat. no. 4331182, Applied Biosystems, Foster City, CA) were used: Acta2, Mm00725412_s1; Ctgf, Mm01192933_g1; Mpo, Mm01298424_m1; Pycard, Mm00445747_g1; Casp1, Mm00438023_m1; Il1b assay ID Mm00434228_m1.
Nlrp3^A350V/+ CreT knock-in mice were provided by Hal M. Hoffman, University of California, San Diego, USA. The study was performed using two randomized groups of male and female Nlrp3^A350V/+ CreT mice (n = 4/group) between 6- and 8-weeks of age at the start of the study. Vehicle (0.5% methyl cellulose, 0.25% Tween 80 in 50 mM NaH2PO4/Na2HPO4 at pH 7.8) or JT002 at 30 mg/kg was administered orally once daily for 30 days starting on Day 1. Tamoxifen (free base) (MP Biomedicals, Solon, OH, USA) was prepared in 90% sunflower seed oil and 10% ethanol and administered at 50 mg/kg intraperitoneally (IP) daily for 4 consecutive days, starting on Day 1, followed by a booster injection on Day 16. Mice were weighed every day to monitor compound activity. On Day 29, a submandibular cheek bleed was performed to obtain whole blood for total blood cell counting. Mice were euthanized on Day 30 and blood and livers were harvested and stored appropriately. Tissue specimens were fixed in 10% formalin and subsequently embedded in paraffin for histopathological assessments, or snap frozen in liquid N2 and stored in low temperature freezers. Complete blood counts and differentials were conducted on a HemaVet Auto Blood Analyzer (Drew Scientific, Miami Lakes, FL, USA). In vitro quantitative determination of alanine aminotransferase (ALT) in serum was performed using the Infinity™ ALT (GPT) Liquid Stable Reagent (cat. n. TR71121, Fisher Diagnostics, Middletown, VA, USA). Sirius Red staining and immunohistochemistry for hepatic MPO and αSMA were performed as described previously.

Turning to `CO[C@@H]1COc2c(S(=O)(=O)NC(=O)Nc3c4c(cc5c3CCC5)CCC4)cnn2C1` [JT002], the body weight loss result is given as “prevented the body weight loss”, the circulating eosinophil count entry is “strong trend for reduced”, the circulating neutrophil count result was “significant normalization” and the “circulating total white blood cell count” value is reported as “significant normalization”. The “degree of liver inflammation by H&E staining” value is given as “visible reduction in the degree of inflammation”, the “hepatic collagen content (Picrosirius red staining)” value is reported as “considerably reduced”, the “hepatic gene expression of Acta2” value is “substantially downregulated” and the “hepatic gene expression of Casp1” value is listed as “substantially reduced”. The “hepatic gene expression of Ctgf” value is “substantially downregulated”, the “hepatic gene expression of Il1b” value is on record as “substantially reduced”, the “hepatic gene expression of Mpo” value is given as “substantially reduced” and the “hepatic gene expression of Pycard (ASC)” value is “substantially reduced”. Moreover, the “reduction in hepatic immunostaining for αSMA (HSC activation)” value was determined as 93% and the “reduction of hepatic neutrophil recruitment (myeloperoxidase immunostaining)” value is 91%. The “liver weight as a percent of body weight” value (vehicle 9.4) was determined as 5.7%. The “serum ALT level” value (vehicle 186 U/L) worked out at 93 U/L.
